Measured values from ChEMBL document CHEMBL4622908, “Two new secondary metabolites isolated from Avena sativa L. (Oat) seedlings and their effects on osteoblast differentiation” (Bioorg Med Chem Lett, 2020).

Columns and labels:
C2C12 [1] = assay: Induction of osteoblast differentiation in mouse C2C12 cells assessed as increase in ALP expression by ALP staining based assay; assay type: functional, cell-based
C2C12 [2] = assay: Cytotoxicity against mouse C2C12 cells assessed as reduction in cell viability at 0.3 to 10 uM by CCK8 assay; assay type: cell-based; conditions: c2c12, 10 µM

With `COC1=CC23/C=C/C(=O)OC[C@@H]4O[C@H](O[C@@H]5CC(C(=O)O)=C[C@@H](OC(=O)/C=C/c6cc(OC)c(c2c6)OC3C[C@H]1O)[C@H]5O)[C@@H](O)[C@H](O)[C@H]4O` (stereo not given in full) the Activity (C2C12 [1]) was “Dose-dependent effect” and the Activity (C2C12 [2]) was “Non-Toxic”.
`COc1cc(O)c2c(=O)cc(-c3ccc(O)cc3)oc2c1[C@@H]1O[C@H](CO)[C@@H](O)[C@H](O)[C@H]1O[C@@H]1O[C@@H](C)[C@H](O)[C@@H](O)[C@H]1O` was tested, and the Activity (C2C12 [1]) was “Dose-dependent effect” and the Activity (C2C12 [2]) was “Non-Toxic”.
`O=c1cc(-c2ccc(O)cc2)oc2cc(O)c([C@@H]3O[C@H](CO)[C@@H](O)[C@H](O)[C@H]3O[C@@H]3OC[C@H](O)[C@H](O)[C@H]3O)c(O)c12` was tested, and the Activity (C2C12 [1]) was “Dose-dependent effect” and the Activity (C2C12 [2]) was “Non-Toxic”.
With `O=c1cc(-c2ccc(O)c(O)c2)oc2cc(O)c([C@@H]3O[C@H](CO[C@@H]4OC[C@@H](O)[C@H](O)[C@H]4O)[C@@H](O)[C@H](O)[C@H]3O)c(O)c12` the Activity (C2C12 [1]) was “Dose-dependent effect” and the Activity (C2C12 [2]) was “Non-Toxic”.
In the case of `C[C@@H]1O[C@@H](O[C@H]2[C@H](O[C@H]3CC[C@@]4(C)C(=CC[C@H]5[C@@H]6C[C@@H]7O[C@]8(CC[C@@](C)(CO[C@@H]9O[C@H](CO)[C@@H](O)[C@H](O)[C@H]9O)O8)[C@@H](C)[C@@H]7[C@@]6(C)CC[C@@H]54)C3)O[C@H](CO)[C@@H](O[C@@H]3O[C@H](CO)[C@@H](O)[C@H](O[C@@H]4O[C@H](CO)[C@@H](O)[C@H](O)[C@H]4O)[C@H]3O)[C@@H]2O)[C@H](O)[C@H](O)[C@H]1O`, the Activity (C2C12 [1]) was “Dose-dependent effect” and the Activity (C2C12 [2]) was “Non-Toxic”.
